Reference: patent US10894794B1, “Substituted [1,2,4]triazolo[4,3-a]pyrazines as antidiabetics” (King Abdulaziz University, priority 2019, dated 2021)

System: STZ-diabetic mice
Test: Fasting blood glucose of diabetic mice during six days of treatment
Type: in vivo
Conditions: for activity in controlling the rise of blood glucose levels in streptozotocin diabetic animals (in words) / control of fasting blood sugar compared with sitagliptin and the other compounds (in words): 50 mg/kg/day; for activity in controlling the rise of blood glucose levels in streptozotocin diabetic animals (in words): 6-day interval; for control of fasting blood sugar compared with sitagliptin and the other compounds (in words): 6 days; for Blood glucose level, fasting: 50 mg/kg/day oral, diabetic mice, mean ± SEM
Text: Our objective was to test the efficacy of the synthesized compounds for their potential to reduce blood glucose in STZ-diabetic mice. The synthesized compounds Nos. 128, 129, 130, 131,140, 142 were expected to act through the inhibition of the DPP-IV enzyme, which is responsible for the degradation of the entero-peptide GLP-I. In turn, GLP-I increases insulin and decreases glucagon release from the pancreatic islets (β and α-cells respectively). So this part of the project was designed to study the effect of the synthesized gliptin simulated compounds on blood glucose levels and their efficacy to increase glucose utilization in diabetic mice through: • a. The effect of the tested compounds in a dose of 50 mg/kg/day on fasting blood glucose blood levels of diabetic mice during six days of treatment. • b. Oral glucose tolerance test (OGTT) through oral glucose loading, 2 h after treatment with single oral dose (50 mg/kg) of the tested compounds in 14 h overnight fasted mice. • c. OGTT through oral glucose loading, 2 h after treatment with the 6th oral dose (50 mg/kg) of the tested compounds in 14 h overnight fasted mice. • d. The effect of the pretreatment with the tested compounds at an oral dose of 50 mg/kg on blood glucose levels, 3 h before and 3 h after meal feeding (feeding for one hour only, then food was removed immediately) in 14 h overnight-fasted diabetic mice.
Blood samples were collected from the tail vein and the blood glucose level was determined. Curves of blood glucose levels (mg/dL) versus the time intervals (min) were constructed and the area under the curves (AUCs) were calculated by the method of calculation embedded in GraphPad Prism® v. 5.0 (GraphPad Software, San Diego, Calif., USA). AUCs of the curves of the different groups were compared and tested for significance against control groups.
All data are presented as means±SEM. Statistical significance was evaluated by analysis of variance (ANOVA) followed by Tukey-Kramer's post hoc test for multiple comparisons. The “t” of the paired data was used to test the significance of the values of the fasting blood glucose compared to the values before treatment. Statistical significance was accepted at a level of p<0.05.

Compound: C[C@H](NC(=O)c1cccc(Cl)c1)C(=O)N1CCn2c(nnc2C(F)(F)F)C1 [GLP-130]
- activity in controlling the rise of blood glucose levels in streptozotocin diabetic animals (in words): significant activity
- control of fasting blood sugar compared with sitagliptin and the other compounds (in words): most consistent and extended activities
- control of fasting blood sugar compared with sitagliptin and the other compounds (in words) (listed as 130): comparable to that of sitagliptin

Compound: O=C(CN1CCn2c(nnc2C(F)(F)F)C1)NC1CCCCC1 [GLP-140]
- activity in controlling the rise of blood glucose levels in streptozotocin diabetic animals (in words): significant activity
- control of fasting blood sugar compared with sitagliptin and the other compounds (in words): comparable to that of sitagliptin
- Blood glucose level, fasting (Day 1): 210.0 ± 12.345 mg/dL

Compound: N#Cc1cccc(NC(=O)CN2CCn3c(nnc3C(F)(F)F)C2)c1 [GLP-142]
- activity in controlling the rise of blood glucose levels in streptozotocin diabetic animals (in words): significant activity
- control of fasting blood sugar compared with sitagliptin and the other compounds (in words): comparable to that of sitagliptin
- Blood glucose level, fasting (Day 1): 230.0 ± 13.769 mg/dL
- Blood glucose level, fasting (Day 4): 188.8 ± 25.784 mg/dL
- Blood glucose level, fasting (Day 5): 205.4 ± 39.315 mg/dL
